Source: ChEMBL document CHEMBL1938278, “Protective effect of ginseng sapogenins against 2,2'-azobis (1-aminopropane) dihydrochloride (AAPH)-induced LLC-PK₁ cell damage” (2012)

Assays:
Assay type in all cases: functional
Details in all cases: Sus scrofa, LLC-PK1, 24 h; read-out: Activity
[1] = system: LLC-PK1; assay: Renoprotective activity against AAPH-induced oxidative damage in pig LLC-PK1 cells assessed as cell viability at 1 ug/ml after 24 hrs by MTT assay relative to control
[2] = system: LLC-PK1; assay: Renoprotective activity against AAPH-induced oxidative damage in pig LLC-PK1 cells assessed as cell viability at 10 ug/ml after 24 hrs by MTT assay relative to control
[3] = system: LLC-PK1; assay: Renoprotective activity against AAPH-induced oxidative damage in pig LLC-PK1 cells assessed as cell viability at 5 ug/ml after 24 hrs by MTT assay relative to control

Row | Compound | viability at 1 µg/mL [1] [%] | viability at 10 µg/mL [2] [%] | viability at 5 µg/mL [3] [%]
1 | C=C(CCC=C(C)C)[C@H]1CC[C@]2(C)[C@@H]1[C@H](O)C[C@@H]1[C@@]3(C)CC[C@H](O)C(C)(C)[C@@H]3CC[C@]12C | 61.8 | 85.5 | 69.9
2 | C=C(CCC=C(C)C)[C@H]1CC[C@]2(C)[C@@H]1[C@H](O)C[C@@H]1[C@@]3(C)CC[C@H](O)C(C)(C)[C@@H]3[C@@H](O)C[C@]12C | 76.9 | 101 | 94.4
3 | CC(C)=CC/C=C(\C)[C@H]1CC[C@]2(C)[C@@H]1[C@H](O)C[C@@H]1[C@@]3(C)CC[C@H](O)C(C)(C)[C@@H]3CC[C@]12C | 60.7 | 64.6 | 63.7
4 | CC(C)=CC/C=C(\C)[C@H]1CC[C@]2(C)[C@@H]1[C@H](O)C[C@@H]1[C@@]3(C)CC[C@H](O)C(C)(C)[C@@H]3[C@@H](O)C[C@]12C | 61.5 | 63.3 | 63.3
5 | CC(C)=CCC[C@](C)(O)[C@H]1CC[C@]2(C)[C@@H]1[C@H](O)C[C@@H]1[C@@]3(C)CC[C@H](O)C(C)(C)[C@@H]3[C@@H](O)C[C@]12C | 61.1 | 85.7 | 73.3
6 | CC(C)=CCC[C@](C)(O)[C@H]1CC[C@]2(C)[C@@H]1[C@H](O)C[C@@H]1[C@@]3(C)CC[C@H](O)C(C)(C)[C@@H]3CC[C@]12C | 62.2 | 62.6 | 72.6
